Data on 17 compounds can be found in US9227949B2, “Heteroarylcarboxylic acid ester derivative” (AJINOMOTO CO., INC., priority 2012, dated 2016).

Structures are written as SMILES.

The test system of one experiment is Zucker Fatty rats. As to the kind of experiment: Evaluation of hypoglycemic action (blood glucose levels after oral gavage). Conditions: gavage 3 mg/kg, HCl salt form, 2 or 4 hours after dosing, free access to feed. The experiment is classed as in vivo. The protocol: Zucker Fatty rats (male, 11-19 week-old, Charles River Japan, Inc.) known to spontaneously develop hyperglycemia were randomly assigned to the groups (6 per group). The animals were individually housed in a polycarbonate cage and allowed to drink water freely from a watering bottle. The animals in the compound groups were gavaged with compound No. 10, 87, 19, or 69 at the dose of 3 mg/kg. These compounds were used as HCl salt form thereof, converted by the method according to Example 3, step 6 from TFA salt form thereof upon the necessity. The animals in the control group were only treated with the vehicle (0.5% methylcellulose). Animals were allowed free access to the feed (CRF-1, Oriental Yeast Co., Ltd.) during the experiment. An aspirate of the blood (6 μL) was collected from the tail vein on the time point of immediately before dosing (time 0) as well as 2, 4, and 8 hours after dosing. The blood glucose levels were determined with ACCU-CHEK Aviva (Roche Diagnostics K.K.).

Experiment [1] addresses human trypsin (Homo sapiens, UniProt P07477). The experiment in a line: Measurement of trypsin inhibitory activity. The experiment is classed as biochemical. Conditions: substrate Boc-Phe-Ser-Arg-AMC, Tris-HCl pH 8.0, Dixon plot. The protocol: (§1) Using a 96 well plate (#3915, Costar), a test compound (25 μL) was mixed with 20 μM fluorescence enzyme substrate (Boc-Phe-Ser-Arg-AMC, 50 μL) mixed with 200 mM Tris-HCl buffer (pH 8.0), and human trypsin (Sigma, 25 μL) was added. Using a fluorescence plate reader fmax (Molecular Devices, Inc.), the reaction rate was measured from the time-course changes at excitation wavelength 355 nm and fluorescence wavelength 460 nm. The Ki value was calculated from the concentration of the test compound, reciprocal of reaction rate, and Km value of the enzyme substrate, and by using Dixon plot.

The target of experiment [2] is recombinant human enteropeptidase (Homo sapiens (Human), UniProt P98073). As to the kind of experiment: Measurement of enteropeptidase inhibitory activity. It counts as biochemical. The conditions noted are these: substrate Gly-Asp-Asp-Asp-Asp-Lys-β-Naphtylamide, Tris-HCl pH 8.0, Dixon plot. The protocol:
Using a 96 well plate (#3915, Costar), a test compound (25 μL), 400 mM Tris-HCl buffer (pH 8.0, 25 μL) and 0.5 mg/mL, fluorescence enzyme substrate (Gly-Asp-Asp-Asp-Asp-Lys-β-Naphtylamide, 25 μL) were mixed, and recombinant human enteropeptidase (R&D Systems, Inc., 25 μL) was added. Using a fluorescence plate reader fmax (Molecular Devices, Inc.), the reaction rate was measured from the time-course changes at excitation wavelength 320 nm and fluorescence wavelength 405 nm. The Ki value was calculated from the concentration of the test compound, reciprocal of reaction rate, and Km value of the enzyme substrate, and by using Dixon plot.

Experiment [3] addresses human trypsin. As to the kind of experiment: Measurement of trypsin inhibitory activity. The experiment is classed as biochemical. Conditions: substrate Boc-Phe-Ser-Arg-AMC, Tris-HCl pH 8.0, Dixon plot. Here is the method:
as §1

recombinant human enteropeptidase, sequence (P98073 whole entry): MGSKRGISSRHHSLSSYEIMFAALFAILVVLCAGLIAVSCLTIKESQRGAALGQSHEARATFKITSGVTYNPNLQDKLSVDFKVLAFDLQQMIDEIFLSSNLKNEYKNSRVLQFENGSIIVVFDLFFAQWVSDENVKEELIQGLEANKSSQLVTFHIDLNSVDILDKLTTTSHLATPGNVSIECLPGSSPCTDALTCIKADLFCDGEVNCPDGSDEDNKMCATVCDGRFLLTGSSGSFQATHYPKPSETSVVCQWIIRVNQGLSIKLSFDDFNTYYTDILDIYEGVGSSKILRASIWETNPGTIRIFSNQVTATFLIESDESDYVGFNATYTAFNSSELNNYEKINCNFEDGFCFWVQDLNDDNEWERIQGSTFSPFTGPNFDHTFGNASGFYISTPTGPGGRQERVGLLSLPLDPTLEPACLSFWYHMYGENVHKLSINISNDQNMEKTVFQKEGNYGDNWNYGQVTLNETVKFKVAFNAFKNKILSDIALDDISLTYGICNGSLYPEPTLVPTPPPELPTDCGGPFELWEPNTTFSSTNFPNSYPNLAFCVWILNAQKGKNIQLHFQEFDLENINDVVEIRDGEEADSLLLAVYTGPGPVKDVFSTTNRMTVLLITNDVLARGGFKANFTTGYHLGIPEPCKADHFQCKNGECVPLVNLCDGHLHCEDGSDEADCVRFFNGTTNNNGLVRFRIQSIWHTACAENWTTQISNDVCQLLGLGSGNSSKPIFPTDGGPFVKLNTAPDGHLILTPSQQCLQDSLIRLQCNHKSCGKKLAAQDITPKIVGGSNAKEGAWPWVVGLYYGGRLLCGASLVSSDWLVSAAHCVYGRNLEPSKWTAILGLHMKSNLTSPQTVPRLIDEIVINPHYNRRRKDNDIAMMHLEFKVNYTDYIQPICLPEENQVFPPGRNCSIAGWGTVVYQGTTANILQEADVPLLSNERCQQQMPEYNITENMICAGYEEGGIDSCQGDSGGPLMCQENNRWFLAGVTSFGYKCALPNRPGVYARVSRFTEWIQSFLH

Regarding `CCCN(CC(=O)O)C(=O)C(C)(C)Cc1ccc(C(=O)Oc2ccc(C(=N)N)cc2F)s1.Cl` [Compound 10, N-{3-[5-(4-amidino-2-fluorophenoxycarbonyl)thiophen-2-yl]-2,2-dimethylpropionyl}-N-propylglycine hydrochloride], the “blood glucose levels compared with vehicle group” value with Zucker Fatty rats is reported as “significantly decreased”.

`CCC(CC)(Cc1ccc(C(=O)Oc2ccc(C(=N)N)cc2F)s1)C(=O)N[C@@H](CC(=O)O)C(=O)O.Cl` [Compound 19]: the “blood glucose levels compared with vehicle group” value in the experiment with Zucker Fatty rats is listed as “significantly decreased”.

As for `CC(C)(Cc1ccc(C(=O)Oc2ccc(C(=N)N)cc2F)s1)C(=O)N[C@@H](C(=O)O)c1ccc(O)cc1.O=C(O)C(F)(F)F` [Compound 69], in the experiment with Zucker Fatty rats, the “blood glucose levels compared with vehicle group” value is given as “significantly decreased”.

Consider `CC(C)(Cc1ccc(C(=O)Oc2ccc(C(=N)N)cc2F)s1)C(=O)Nc1cc(O)cc(C(=O)O)c1` [Compound 74], for which the figures for the Ki (at human trypsin [1]; in experiment [2]) were 0.18 nM and 0.58 nM, respectively.

Regarding `CCC(CC)(Cc1ccc(C(=O)Oc2ccc(C(=N)N)cc2F)s1)C(=O)Nc1ccc(O)c(C(=O)O)c1` [Compound 82], the inhibition constant (Ki) (commonly a dissociation constant, usually derived from enzyme kinetics or from competition with a known ligand) turned out to be 5.32 nM at human trypsin [1] and 3.52 nM in experiment [2].

For `CCC(CC)(Cc1ccc(C(=O)Oc2ccc(C(=N)N)cc2F)s1)C(=O)NCC(=O)O` [Compound 83], the Ki on human trypsin [3] came to 1.42 nM; in experiment [2] it was 0.72 nM.

For `CCC(CC)(Cc1ccc(C(=O)Oc2ccc(C(=N)N)cc2F)s1)C(=O)N[C@@H](CCC(=O)O)c1nnn[nH]1` [Compound 84], the Ki was 3.27 nM at human trypsin [3] and 0.43 nM in experiment [2].

As for `CC(C)(Cc1ccc(C(=O)Oc2ccc(C(=N)N)cc2F)s1)C(=O)N[C@H]1CCC[C@@H](C(=O)O)C1` [Compound 85], the Ki on human trypsin [1] came to 0.69 nM; in experiment [2], 0.81 nM.

As to `CCC(CC)(Cc1ccc(C(=O)Oc2ccc(C(=N)N)cc2F)s1)C(=O)N[C@@H](Cc1nn[nH]n1)C(=O)O` [Compound 86], the Ki on human trypsin [1] came out at 3.4 nM; in experiment [2], 0.24 nM.

On to `CC(C)(Cc1ccc(C(=O)Oc2ccc(C(=N)N)cc2F)s1)C(=O)O.O=C(O)C(F)(F)F` [Compound 87], for which the “blood glucose levels compared with vehicle group” value with Zucker Fatty rats is reported as “significantly decreased”. In addition, the Ki on human trypsin [1] came out at 1.3 nM; in experiment [2], 0.39 nM.

As for `CCC(CC)(Cc1ccc(C(=O)Oc2ccc(C(=N)N)cc2F)s1)C(=O)N1CC(C(=O)O)C1` [Compound 88], the values for the Ki (at human trypsin [1]; in experiment [2]) were 2.87 nM and 1 nM, respectively.

In the case of `CCC(CC)(Cc1ccc(C(=O)Oc2ccc(C(=N)N)cc2F)s1)C(=O)Nc1cccc(S(=O)(=O)O)c1` [Compound 89], the Ki on human trypsin [3] was 1.17 nM; in experiment [2] it was 0.84 nM.

For the compound `CCC(CC)(Cc1ccc(C(=O)Oc2ccc(C(=N)N)cc2F)s1)C(=O)Nc1ccc(C(=O)O)c(C(=O)O)c1` [Compound 90], the figures for the Ki (on human trypsin [1]; in experiment [2]) were 1.7 nM and 0.55 nM, respectively.

In the case of `CC(C)(Cc1ccc(C(=O)Oc2ccc(C(=N)N)cc2F)s1)C(=O)N1CC[C@H](C(=O)O)C1` [Compound 91], the Ki on human trypsin [1] was determined as 1.33 nM; in experiment [2], 0.9 nM.

Consider `CC(C)(Cc1ccc(C(=O)Oc2ccc(C(=N)N)cc2F)s1)C(=O)N[C@H](C(=O)O)c1ccc(O)cc1` [Compound 92], for which the Ki was determined as 0.96 nM on human trypsin [3] and 0.67 nM in experiment [2].

As to `CC(C)(Cc1ccc(C(=O)Oc2ccc(C(=N)N)cc2F)s1)C(=O)N1C[C@H](O)C[C@H]1C(=O)O` [Compound 93], the Ki was 0.9 nM at human trypsin [3] and 0.3 nM in experiment [2].

Regarding `CC(C)(Cc1ccc(C(=O)Oc2ccc(C(=N)N)cc2F)s1)C(=O)N[C@H]1CC=CC[C@H]1C(=O)O` [Compound 94], the Ki on human trypsin [3] was 1.98 nM; in experiment [2], 1.3 nM.
